pIC50: −log10 of the molar value.
Biological target: T1, NS5B from the BK strain (genotype 1b) (Hepatitis C virus genotype 1b, UniProt P26663)
T1 construct: NS5B from the BK strain (genotype 1b) is expressed in E. coli as a protein in which the 21 C-terminal amino acids are replaced; made in house; host or cells: E. coli
Experiment: Hepatitis C polymerase inhibition, NS5B BK strain, 33P-GTP filter assay
Assay type: biochemical
Details: Table 1A; for inhibition at 20 µM: 20 μM compound, read-out: HCV pol % inh at 20 μM; for pIC50: NS5B BK strain, read-out: HCV pol BK IC50
In short: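 E. coli-expressed NS5B (BK, genotype 1b) with the 21 C-terminal residues replaced by a linker-His6 tag was preincubated with compound for 15 min at room temperature. It then extended a hairpin-primed heteropolymeric RNA (~3 nM, ~760 nt product) with α-[33P]-GTP for 2 h at 22–25° C. The reaction was stopped with EDTA, and incorporated label was counted on filters.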

T1 sequence (P26663 2420-2989): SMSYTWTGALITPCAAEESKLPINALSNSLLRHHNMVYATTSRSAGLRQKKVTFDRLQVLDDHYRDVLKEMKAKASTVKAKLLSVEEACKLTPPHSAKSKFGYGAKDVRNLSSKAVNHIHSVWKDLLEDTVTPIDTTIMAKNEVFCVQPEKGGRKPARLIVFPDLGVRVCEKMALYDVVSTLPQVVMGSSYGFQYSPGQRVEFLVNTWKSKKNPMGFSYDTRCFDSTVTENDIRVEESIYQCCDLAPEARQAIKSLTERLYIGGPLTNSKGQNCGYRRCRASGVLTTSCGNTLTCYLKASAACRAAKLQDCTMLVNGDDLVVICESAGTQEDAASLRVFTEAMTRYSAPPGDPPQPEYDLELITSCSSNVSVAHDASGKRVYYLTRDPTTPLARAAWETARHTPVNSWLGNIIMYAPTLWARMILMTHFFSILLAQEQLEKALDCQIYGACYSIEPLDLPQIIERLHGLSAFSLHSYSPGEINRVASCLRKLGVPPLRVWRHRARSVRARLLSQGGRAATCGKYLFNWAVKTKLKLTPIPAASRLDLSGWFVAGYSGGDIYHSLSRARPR

With `CC(C)C1(CC(=O)O)OCCc2c1[nH]c1c(Cl)ccc(C(F)(F)F)c21` (centres unmarked) [Example 132, [8-chloro-1-isopropyl-5-(trifluoromethyl)-1,3,4,9-tetrahydropyrano[3,4-b]indol-1-yl]acetic acid] the inhibition at 20 µM was 78% and the pIC50 was 5.02.

Compound `CCCC1(CC(=O)O)OCCc2c1n(Cc1ccccc1)c1c(Cl)ccc(Cl)c21` (centres unmarked) [Example 234, (9-benzyl-5,8-dichloro-1-propyl-1,3,4,9-tetrahydropyrano[3,4-b]indol-1-yl)acetic acid] has a pIC50 of 4.89.

Compound `Cc1cc(Cl)c2[nH]c3c(c2c1C#N)CCOC3(CC(=O)O)C(C)C` (centres unmarked) [Example 184, (8-chloro-5-cyano-1-isopropyl-6-methyl-1,3,4,9-tetrahydropyrano[3,4-b]indol-1-yl)acetic acid] has an inhibition at 20 µM of 39% and a pIC50 of under 5.30.

Work on `CC(C)C1(CC(=O)O)OCCc2c1[nH]c1cccc(Br)c21` (centres unmarked) [Example 23, (5-bromo-1-isopropyl-1,3,4,9-tetrahydropyrano[3,4-b]indol-1-yl)acetic acid] yielded an inhibition at 20 µM of 12% and a pIC50 of under 4.70.

`CCCC1(CC(=O)O)OCCc2c1[nH]c1cccc(-c3ccc4ccccc4c3)c21` (centres unmarked) [Example 38, [5-(2-naphthyl)-1-propyl-1,3,4,9-tetrahydropyrano[3,4-b]indol-1-yl]acetic acid] was tested, and the inhibition at 20 µM was 11% and the pIC50 was under 4.70.

`O=C(O)CC1(c2cccc([N+](=O)[O-])c2)OCCc2c1[nH]c1cccc(Cl)c21` (centres unmarked) [Example 19, [5-chloro-1-(3-nitrophenyl)-1,3,4,9-tetrahydropyrano[3,4-b]indol-1-yl]acetic acid] showed an inhibition at 20 µM of 6% and a pIC50 of under 4.70.

`CCCC1(CC(=O)O)OCCc2c1[nH]c1c(-c3ccc(C)cc3)cccc21` (centres unmarked) [Example 90, [8-(4-methylphenyl)-1-propyl-1,3,4,9-tetrahydropyrano[3,4-b]indol-1-yl]acetic acid] gave an inhibition at 20 µM of 2% and a pIC50 of under 4.70.

`CCCC1(CC(=O)O)OCCc2c1[nH]c1c(F)ccc(-c3ccc(OC)cc3)c21` (centres unmarked) [Example 149, [8-fluoro-5-(4-methoxyphenyl)-1-propyl-1,3,4,9-tetrahydropyrano[3,4-b]indol-1-yl]acetic acid] gave an inhibition at 20 µM of under 11% and a pIC50 of 4.80.

Compound `CCCC1(CC(=O)O)OCCc2c1[nH]c1c(C)ccc(C(=O)N(C)C)c21` (centres unmarked) [Example 227, (5-dimethylcarbamoyl-8-Methyl-1-propyl-1,3,4,9-tetrahydropyrano[3,4-b]indol-1-yl)acetic acid] has a pIC50 of under 4.70.

`CCCC1(CC(=O)O)OCCc2c1[nH]c1c(Cl)ccc(Cl)c21` (centres unmarked) [Example 7, (5,8-dichloro-1-propyl-1,3,4,9-tetrahydro-pyrano[3,4-b]indol-1-yl)acetic acid] gave a pIC50 of 6.70.

Work on `CC(C)C1(CC(=O)O)OCCc2c1[nH]c1c(Cl)cc(Cl)c(Cl)c21` (centres unmarked) [Example 157, (5,6,8-trichloro-1-isopropyl-1,3,4,9-tetrahydropyrano[3,4-b]indol-1-yl)acetic acid] yielded an inhibition at 20 µM of 89% and a pIC50 of 6.22.

`CCC[C@@]1(CC(=O)O)OCCc2c1[nH]c1c(C)ccc(C#N)c21` [Example 3, [(S)-5-cyano-8-methyl-1-propyl-1,3,4,9-tetrahydropyrano[3,4-b]indol-1-yl]acetic acid] gave a pIC50 of 5.62.

`Cc1cc(Cl)c2[nH]c3c(c2c1Br)CCOC3(C)CC(=O)O` (centres unmarked) [Example 173, (5-bromo-8-chloro-1,6-dimethyl-1,3,4,9-tetrahydropyrano[3,4-b]indol-1-yl)acetic acid] was tested, and the inhibition at 20 µM was 19% and the pIC50 was under 5.30.

`CCC1(CC(=O)O)OCCc2c1[nH]c1cccc(Br)c21` (centres unmarked) [Example 21, (5-bromo-1-ethyl-1,3,4,9-tetrahydro-pyrano[3,4-b]indol-1-yl)acetic acid] showed an inhibition at 20 µM of 58% and a pIC50 of under 4.70.

`CC(C)C1(CC(=O)O)OCCc2c1[nH]c1c(C(F)(F)F)cccc21` (centres unmarked) [Example 118, [1-isopropyl-8-(trifluoromethyl)-1,3,4,9-tetrahydropyrano[3,4-b]indol-1-yl]acetic acid] showed an inhibition at 20 µM of 10% and a pIC50 of under 4.70.

Compound `CCCC1(CC(=O)O)OCCc2c1[nH]c1cccc(-c3cccs3)c21` (centres unmarked) [Example 37, (1-propyl-5-thien-2-yl-1,3,4,9-tetrahydropyrano[3,4-b]indol-1-yl)acetic acid] has an inhibition at 20 µM of 28% and a pIC50 of under 4.70.

`CC1(CC(=O)O)OCCc2c1[nH]c1c(Cl)ccc(C(F)(F)F)c21` (centres unmarked) [Example 129, [8-chloro-1-methyl-5-(trifluoromethyl)-1,3,4,9-tetrahydropyrano[3,4-b]indol-1-yl]acetic acid] showed an inhibition at 20 µM of 45% and a pIC50 of under 4.70.

With `CCCC1(CC(=O)O)OCCc2c1[nH]c1c(Cl)cc(C)c(Br)c21` (centres unmarked) [Example 175, (5-bromo-8-chloro-6-methyl-1-propyl-1,3,4,9-tetrahydropyrano[3,4-b]indol-1-yl)acetic acid] the inhibition at 20 µM was 84% and the pIC50 was 6.30.

In the case of `C/C=C/CCC1(CC(=O)O)OCCc2c1[nH]c1c(Cl)cc(Cl)c(Cl)c21` (centres unmarked) [Example 159, {5,6,8-trichloro-1-[(3E)-pent-3-enyl]-1,3,4,9-tetrahydropyrano[3,4-b]indol-1-yl}acetic acid], the inhibition at 20 µM was 36% and the pIC50 was under 4.70.

For `CC(C)C1(CC(=O)O)OCCc2c1[nH]c1c(Br)ccc(Br)c21` (centres unmarked) [Example 212, (5,8-dibromo-1-isopropyl-1,3,4,9-tetrahydropyrano[3,4-b]indol-1-yl)acetic acid], the inhibition at 20 µM was 81% and the pIC50 was 6.40.

`Cc1cc(Cl)c2[nH]c3c(c2c1C#N)CCOC3(CC(=O)O)c1ccccc1` (centres unmarked) [Example 187, (8-chloro-5-cyano-6-methyl-1-phenyl-1,3,4,9-tetrahydropyrano[3,4-b]indol-1-yl)acetic acid] showed an inhibition at 20 µM of 61% and a pIC50 of under 5.30.

For `Cc1cc(F)c(C#N)c2c3c([nH]c12)C(C)(CC(=O)O)OCC3` (centres unmarked) [Example 205, (5-cyano-6-fluoro-1,8-dimethyl-1,3,4,9-tetrahydropyrano[3,4-b]indol-1-yl)acetic acid], the inhibition at 20 µM was 34% and the pIC50 was under 4.70.

Compound `C/C=C/CCC1(CC(=O)O)OCCc2c1[nH]c1c(C)ccc(F)c21` (centres unmarked) [Example 145, {5-fluoro-8-methyl-1-[(3E)-pent-3-enyl]-1,3,4,9-tetrahydropyrano[3,4-b]indol-1-yl}acetic acid] has an inhibition at 20 µM of 20% and a pIC50 of under 4.70.

`Cc1cc(Cl)c2[nH]c3c(c2c1Br)CCOC3(CC(=O)O)C(C)C` (centres unmarked) [Example 176, (5-bromo-8-chloro-1-isopropyl-6-methyl-1,3,4,9-tetrahydropyrano[3,4-b]indol-1-yl)acetic acid] was tested, and the inhibition at 20 µM was 49% and the pIC50 was under 5.30.

`CCCCC1(CC(=O)O)OCCc2c1[nH]c1c(C)cc(F)c(C#N)c21` (centres unmarked) [Example 208, (1-butyl-5-cyano-6-fluoro-8-methyl-1,3,4,9-tetrahydropyrano[3,4-b]indol-1-yl)acetic acid] showed an inhibition at 20 µM of 88% and a pIC50 of 6.64.

For `CCC1(CC(=O)O)OCCc2c1[nH]c1c(C)ccc(F)c21` (centres unmarked) [Example 142, (1-ethyl-5-fluoro-1,3,4,9-tetrahydro-8-methyl-pyrano[3,4-b]indol-1-yl)acetic acid], the inhibition at 20 µM was 39% and the pIC50 was 4.70.

With `CCCCC1(CC(=O)O)OCCc2c1[nH]c1c(Cl)cc(C)c(Br)c21` (centres unmarked) [Example 177, (5-bromo-1-butyl-8-chloro-6-methyl-1,3,4,9-tetrahydropyrano[3,4-b]indol-1-yl)acetic acid] the inhibition at 20 µM was 70% and the pIC50 was 5.40.

Compound `C/C=C/CCC1(CC(=O)O)OCCc2c1[nH]c1c(C(F)(F)F)cccc21` (centres unmarked) [Example 120, [1-[(3E)-pent-3-enyl]-8-(trifluoromethyl)-1,3,4,9-tetrahydropyrano[3,4-b]indol-1-yl]acetic acid] has an inhibition at 20 µM of 33% and a pIC50 of under 4.70.

In the case of `O=C(O)CC1(c2ccc(C(=O)O)cc2)OCCc2c1[nH]c1c(Cl)ccc(Cl)c21` (centres unmarked) [Example 57, 4-[1-(carboxymethyl)-5,8-dichloro-1,3,4,9-tetrahydropyrano[3,4-b]indol-1-yl]benzoic acid], the inhibition at 20 µM was 56% and the pIC50 was 5.52.

For `CCCCC1(CC(=O)O)OCCc2c1[nH]c1c(Cl)cc(C)c(C#N)c21` (centres unmarked) [Example 185, (1-butyl-8-chloro-5-cyano-6-methyl-1,3,4,9-tetrahydropyrano[3,4-b]indol-1-yl)acetic acid], the inhibition at 20 µM was 69% and the pIC50 was 5.40.

`CCCC1(CC(=O)O)OCCc2c1[nH]c1c(F)ccc(C#N)c21` (centres unmarked) [Example 4, (5-cyano-8-fluoro-1-propyl-1,3,4,9-tetrahydro-pyrano[3,4-b]indol-1-yl)acetic acid] was tested, and the pIC50 was 6.00.

Work on `CC(C)C1(CC(=O)O)OCCc2c1[nH]c1c(F)ccc(F)c21` (centres unmarked) [Example 125, (5,8-difluoro-1-isopropyl-1,3,4,9-tetrahydropyrano[3,4-b]indol-1-yl)acetic acid] yielded an inhibition at 20 µM of 73% and a pIC50 of under 4.70.

For `CCC1(CC(=O)O)OCCc2c1[nH]c1cccc(Cl)c21` (centres unmarked) [Example 13, (5-Chloro-1-ethyl-1,3,4,9-tetrahydropyrano[3,4-b]indol-1-yl)acetic acid], the inhibition at 20 µM was 23% and the pIC50 was under 4.70.

Work on `O=C(O)CC1(c2ccoc2)OCCc2c1[nH]c1c(Cl)cc(Cl)c(Cl)c21` (centres unmarked) [Example 162, [5,6,8-trichloro-1-(3-furyl)-1,3,4,9-tetrahydropyrano[3,4-b]indol-1-yl]acetic acid] yielded an inhibition at 20 µM of 73% and a pIC50 of 5.62.

Compound `CCCC1(CC(=O)O)OCCc2c1[nH]c1c(F)ccc(-c3ccc(C(F)(F)F)cc3)c21` (centres unmarked) [Example 150, {8-fluoro-1-propyl-5-[4-(trifluoromethyl)phenyl]-1,3,4,9-tetrahydropyrano[3,4-b]indol-1-yl}acetic acid] has an inhibition at 20 µM of under 37% and a pIC50 of 5.05.
